target: T1, Human Recombinant Matriptase 2 (Homo sapiens, UniProt Q8IU80); test: Matriptase 2 fluorescence based inhibition assay, Method A (100 mM TRIS pH 9, 1 mg/mL BSA); assay type: biochemical; details: 1 uM compound; Assay Used = A; read-out: Mar-2 % inhibition at 1 uM
T1 construct: purchased Enzo Life Sciences (an in-house preparation was also used) ALX-201-752-1
T1 sequence (Q8IU80 1-811): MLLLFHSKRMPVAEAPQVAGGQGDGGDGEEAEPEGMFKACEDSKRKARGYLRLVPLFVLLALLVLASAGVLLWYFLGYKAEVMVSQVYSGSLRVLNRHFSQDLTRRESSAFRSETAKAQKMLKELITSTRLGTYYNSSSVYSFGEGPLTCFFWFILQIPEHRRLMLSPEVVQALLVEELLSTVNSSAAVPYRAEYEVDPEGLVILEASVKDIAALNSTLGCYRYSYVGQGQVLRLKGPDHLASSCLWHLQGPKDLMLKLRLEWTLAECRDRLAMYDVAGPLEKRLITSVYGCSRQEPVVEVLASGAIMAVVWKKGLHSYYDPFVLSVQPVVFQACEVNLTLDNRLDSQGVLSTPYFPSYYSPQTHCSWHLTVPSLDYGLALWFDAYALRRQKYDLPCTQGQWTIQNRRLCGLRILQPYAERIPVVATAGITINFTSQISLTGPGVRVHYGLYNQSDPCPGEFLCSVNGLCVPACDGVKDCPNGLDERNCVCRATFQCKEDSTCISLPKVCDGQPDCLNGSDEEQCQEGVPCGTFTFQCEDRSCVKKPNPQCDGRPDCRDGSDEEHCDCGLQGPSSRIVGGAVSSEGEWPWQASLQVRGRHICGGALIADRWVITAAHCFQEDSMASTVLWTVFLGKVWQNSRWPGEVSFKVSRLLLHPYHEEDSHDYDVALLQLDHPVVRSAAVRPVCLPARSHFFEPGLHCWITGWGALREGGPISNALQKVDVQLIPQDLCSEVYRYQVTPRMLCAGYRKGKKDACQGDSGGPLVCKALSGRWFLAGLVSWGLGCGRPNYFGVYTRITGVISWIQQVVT
Description: Test compounds were evaluated for their potential to inhibit Human Recombinant Matriptase 2 (in-house and commercial protein from Enzo Life Sciences—cat log -ALX-201-752-1) using fluorescence based assay. The concentration of Recombinant Matriptase 2 and the substrate used in the assay was: 7 nM (commercial) and 15 nM (Inhouse Matriptase 2) and 100 μM (Boc-Gln-Ala-Arg-7-amido-4-methyl coumarin hydrobromide—Cat log: B4153-Sigma) respectively. The assay buffer used was 100 mM TRIS pH 9, 1 mg/mL BSA. The assay was performed using 384 well black flat bottom plate from grenier (Cat log: 781076) at 25° C. The enzyme and compound was preincubated for 30 mins, plate was read 60 mins after substrate addition at wavelength Ex: 360/Em: 480 nm. The final assay volume was 20 μl. Stock solution of compounds were initially prepared in DMSO and appropriate dilutions were made for screening and IC50 determination (final DMSO conc in the assay was 1%). All the measurements were carried out using the Spectramax M5, Molecular devices. The compounds were screened at 1 and 10 μM concentration and IC50 was determined for the interested compounds.
To determine IC50 values, dose response curves were generated by plotting percentage inhibition as a function of inhibitor concentration and the data was fitted to sigmoidal non-linear regression equation (variable slope) using Graph Pad prism software V7.

inhibition at 1 µM [%]	SMILES
25 to 50	N=C(N)c1ccc2cc(C(=O)N[C@H]3CC[C@H](N)CC3)n(S(=O)(=O)c3ccc4ccccc4c3)c2c1 [Compound I-397]

same assay, conditions: 1 uM; Assay Used A; read-out: Mar-2 % inhibition at 1 uM

SMILES	inhibition at 1 µM [%]
CS(=O)(=O)c1cccc(NC(=O)c2cc3ccc(C(=N)N)cc3n2Cc2ccc(C(N)=O)cc2)c1 [Compound I-150]	0 to 25
COc1cccc(NC(=O)c2cc3ccc(C(=N)N)cc3n2Cc2ccc(C(N)=O)cc2)c1 [Compound I-67]	0 to 25
N=C(N)c1ccc2cc(C(=O)Nc3cccc(-n4cccn4)n3)n(Cc3ccc(C(N)=O)cc3)c2c1 [Compound I-181]	0 to 25
C[C@H]1CCCN1c1cccc(NC(=O)c2cc3ccc(C(=N)N)cc3n2Cc2ccc(C(N)=O)cc2)c1 [Compound I-124]	0 to 25
CCOC(=O)NC(=N)c1ccc2cc(C(=O)Nc3cccc(N4CCCC4)n3)n(Cc3ccc(C(N)=O)cc3)c2c1 [Compound I-183, Ethyl ((1-(4-carbamoylbenzyl)-2-((6-(pyrrolidin-1-yl)pyridin-2-yl)carbamoyl)-1H-indol-6-yl)(imino)methyl)carbamate]	0 to 25
N=C(N)c1ccc2cc(C(=O)NC3CCNCC3)n(Cc3ccc(C(F)(F)F)cc3)c2c1 [Compound I-5]	25 to 50
N=C(N)c1ccc2cc(C(=O)Nc3ccc(C(=O)N4CC[C@H](F)C4)cc3)n(Cc3ccc(C(N)=O)cc3)c2c1 [Compound I-106]	0 to 25
N=C(N)c1ccc2cc(C(=O)Nc3cccc(-c4cnco4)c3)n(Cc3ccc(C(N)=O)cc3)c2c1 [Compound I-163]	0 to 25
CCCCCCOC(=O)NC(=N)c1ccc2cc(C(=O)Nc3cccc(N4CCCC4)c3)n(Cc3ccc(C(N)=O)cc3)c2c1 [Compound I-159]	0 to 25
CSc1ccc(Cn2c(C(=O)NC3CCC(N)CC3)cc3ccc(C(=N)N)cc32)cc1 (centres unmarked) [Compound I-13]	50 to 75
CC(C)(C)c1ccc(Cn2c(C(=O)NC3CCC(N)CC3)cc3ccc(C(=N)N)cc32)cc1 (centres unmarked) [Compound I-17]	50 to 75
N=C(N)c1ccc2cc(C(=O)Nc3ccc(N4CC[C@@H](F)C4)cc3)n(Cc3ccc(C(N)=O)cc3)c2c1 [Compound I-127]	25 to 50
N=C(N)c1ccc2cc(C(=O)Nc3ccc(-c4ccccc4)cc3)n(Cc3ccc(C(N)=O)cc3)c2c1 [Compound I-66]	0 to 25

Second part, the compound after the results:

inhibition at 1 µM [%]	SMILES
0 to 25	COC(=O)NC(=N)c1ccc2cc(C(=O)Nc3ccc(N4CCCC4)cc3)n(Cc3ccc(C(N)=O)cc3)c2c1 [Compound I-118, Methyl ((1-(4-carbamoylbenzyl)-2-((4-(pyrrolidin-1-yl)phenyl)carbamoyl)-1H-indol-6-yl)(imino)methyl)carbamate]
0 to 25	N=C(N)c1ccc2cc(C(=O)Nc3cccc(-c4ccccc4)c3)n(Cc3ccc(C(N)=O)cc3)c2c1 [Compound I-151]
0 to 25	N=C(N)c1ccc2cc(C(=O)Nc3cccc([N+](=O)[O-])c3)n(Cc3ccc(C(N)=O)cc3)c2c1 [Compound I-131]
0 to 25	N=C(N)c1ccc2cc(C(=O)Nc3cccc(N4CCCC4=O)c3)n(Cc3ccc(C(N)=O)cc3)c2c1 [Compound I-156]
25 to 50	CN(C)C(=O)COc1ccc(NC(=O)c2cc3ccc(C(=N)N)cc3n2Cc2ccc(C(N)=O)cc2)cc1 [Compound I-99]
0 to 25	C#Cc1cccc(NC(=O)c2cc3ccc(C(=N)N)cc3n2Cc2ccc(C(N)=O)cc2)c1 [Compound I-138]
25 to 50	N=C(N)c1ccc2cc(C(=O)NCc3ccc(N4CCCC4)cc3)n(Cc3ccc(C(N)=O)cc3)c2c1 [Compound I-112]
0 to 25	CC(C)c1ccc(Cn2c(C(=O)N[C@H]3CC=CCC3)cc3ccc(C(=N)N)cc32)cc1 [Compound I-14]
0 to 25	N=C(NC(=O)OC1CCCCC1)c1ccc2cc(C(=O)Nc3cccc(N4CCCC4)c3)n(Cc3ccc(C(N)=O)cc3)c2c1 [Compound I-164]
25 to 50	N=C(N)c1ccc2cc(C(=O)Nc3ccc(N4CC[C@H](F)C4)cc3)n(Cc3ccc(C(N)=O)cc3)c2c1 [Compound I-105]
25 to 50	CCOC(=O)c1ccc(Cn2c(C(=O)N[C@H]3CC[C@H](N)CC3)cc3ccc(C(=N)N)cc32)cc1 [Compound I-22, Ethyl 4-((2-(((1r,4r)-4-aminocyclohexyl)carbamoyl)-6-carbamimidoyl-1H-indol-1-yl)methyl)-benzoate]
0 to 25	N=C(N)c1ccc2cc(C(=O)Nc3ccc(C(F)(F)F)cc3)n(Cc3ccc(C(N)=O)cc3)c2c1 [Compound I-61]

same assay, conditions: at 1 uM; Assay Used = A; read-out: Mar-2 % inhibition at 1 uM

SMILES	inhibition at 1 µM [%]
N=C(N)c1ccc2cc(C(=O)NC3CCC(N)CC3)n(Cc3ccc(Oc4ccc(F)cc4)cc3)c2c1 (centres unmarked) [Compound I-243]	50 to 75
CN(C)C(=O)c1ccc(Cn2c(C(=O)NCC3CCCCC3)cc3ccc(C(=N)N)cc32)cc1 [Compound I-216, 6-Carbamimidoyl-N-(cyclohexylmethyl)-1-(4-(dimethylcarbamoyl)benzyl)-1H-indole-2-carboxamide]	0 to 25
N=C(N)c1ccc2cc(C(=O)NCC3CCCCC3)n(Cc3ccc(C(N)=O)cc3Cl)c2c1 [Compound I-228, 6-Carbamimidoyl-1-(2-Chloro-4-carbamoyl-benzyl)-N-(cyclohexylmethyl)-1H-indole-2-carboxamide]	0 to 25
N=C(N)c1ccc2cc(C(=O)N3CCC(F)CC3)n(Cc3ccc(C(=O)NC4CC4)cc3)c2c1 [Compound I-391]	0 to 25
N=C(N)c1ccc2cc(C(=O)N3CCC(CCNC(=O)c4ccccn4)CC3)n(Cc3ccc(C(F)(F)F)cc3)c2c1 [Compound I-286]	0 to 25
N=C(N)c1ccc2cc(C(=O)N3CCC(CCN)CC3)n(S(=O)(=O)Cc3ccccc3)c2c1 [Compound I-336]	0 to 25
N=C(N)c1ccc2cc(C(=O)N3CC[C@@H](N)C3)n(CCc3ccccc3)c2c1 [Compound I-300]	25 to 50
N=C(N)c1ccc2cc(C(=O)N3CCC(F)(F)CC3)n(Cc3ccc(OC(F)(F)F)cc3)c2c1 [Compound I-290]	0 to 25
CN(C)C(=O)c1ccc(Cn2c(C(=O)N3CCC(F)CC3)cc3ccc(C(=N)N)cc32)cc1 [Compound I-389]	0 to 25

Continued, values first:

inhibition at 1 µM [%]	SMILES
0 to 25	CC(C)c1ccc(Cn2c(C(=O)N3CCC(F)CC3)cc3ccc(C(=N)N)cc32)cc1 [Compound I-295]
0 to 25	N=C(N)c1ccc2cc(C(=O)N3CCC(CCCC(N)=O)CC3)n(Cc3ccc(C(F)(F)F)cc3)c2c1 [Compound I-322]
25 to 50	N=C(N)c1ccc2cc(C(=O)N[C@H]3CC[C@H](N)CC3)n(Cc3ccc(NC(=O)CCN)cc3)c2c1 [Compound I-262, N-((1r,4r)-4-Aminocyclohexyl)-1-(4-(3-aminopropanamido)benzyl)-6-carbamimidoyl-1H-indole-2-carboxamide]
0 to 25	CCOC(=O)CCCC1CCN(C(=O)c2cc3ccc(C(=N)N)cc3n2Cc2ccc(C(F)(F)F)cc2)CC1 [Compound I-281]
0 to 25	NC(=O)c1ccc2cc(C(=O)N3CCc4ccccc4C3)n(Cc3ccc(-c4ccccc4)cc3)c2c1 [Compound I-394, 1-([1,1′-Biphenyl]-4-ylmethyl)-2-(1,2,3,4-tetrahydroisoquinoline-2-carbonyl)-1H-indole-6-carboxamide]
0 to 25	N=C(N)c1ccc2cc(C(=O)Nc3nc4ccccc4s3)n(Cc3ccc(C(N)=O)cc3)c2c1 [Compound I-265]
25 to 50	COc1ccc(CCn2c(C(=O)N3CCC(CCN)CC3)cc3ccc(C(=N)N)cc32)cc1 [Compound I-302]
0 to 25	CC1CCC(NC(=O)c2c(Cl)c3ccc(C(=N)N)cc3n2Cc2ccc(C(N)=O)cc2)CC1 (centres unmarked) [Compound I-214]
0 to 25	N=C(N)c1ccc2cc(C(=O)N3CCC(CCOCCO)CC3)n(Cc3ccc(C(F)(F)F)cc3)c2c1 [Compound I-287]

From US12428415B2, “Matriptase 2 inhibitors and uses thereof” (Disc Medicine, Inc., priority 2018, dated 2025)
